Laboratory results published in paper PMC11695783 (Frontiers in Pharmacology, 2024).
“And” between values parts separate entries of the source, which are not always exact repeats. Identical values can stand only once. Like-named read-outs stand apart in the source and are kept apart here.

Tests used:
[1] = design: method as in Shang et al., 2018; Xianhui, 2010; details: piglets, IM; ref Shang et al., 2018; Xianhui, 2010; cited from earlier work
[2] = tested on: Mycoplasma pneumoniae strain M129 (ATCC 29342); experiment: Time-kill curves; assay type: cell-based; design: M. pneumoniae count in time-kill curve: unit not given here
How it was run: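 Strain grown at 37 °C, 5% CO2 in modified SP-4 broth (pH 7.4, 20% FBS). Cultures incubated 72 h, sampled every 12 h, 10-fold serially diluted and plated on SP-4 agar; colonies counted after 7 d. Three repeats.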

mice [3] = details: acute oral toxicity, ref EMA, 1999, cited from earlier work
mice [4] = tested on: mice; design: method as in EMA, 1999; details: administered intravenously, ref EMA, 1999; cited from earlier work

Structure (SMILES): C=C[C@]1(C)C[C@@H](OC(=O)CSCCN(CC)CC)[C@]2(C)[C@H](C)CC[C@]3(CCC(=O)[C@H]32)[C@@H](C)[C@@H]1O [tiamulin, Tiamulin, reference compound]
- bioavailability [1]: 73.51% and 75.73%
- M. pneumoniae count in time-kill curve ([2]; 1×MIC, time 0): 6.339
- M. pneumoniae count in time-kill curve ([2]; 1×MIC, time 12): 5.698
- M. pneumoniae count in time-kill curve ([2]; 1×MIC, time 24): 6.253
- M. pneumoniae count in time-kill curve ([2]; 1×MIC, time 36): 5.423
- M. pneumoniae count in time-kill curve ([2]; 1×MIC, time 48): 4.896
- M. pneumoniae count in time-kill curve ([2]; 1×MIC, time 60): 5.29
- M. pneumoniae count in time-kill curve ([2]; 1×MIC, time 72): 4.787
- M. pneumoniae count in time-kill curve ([2]; 2×MIC, time 0): 6.339
- M. pneumoniae count in time-kill curve ([2]; 2×MIC, time 12): 6.4123
- M. pneumoniae count in time-kill curve ([2]; 2×MIC, time 24): 6.433
- M. pneumoniae count in time-kill curve ([2]; 2×MIC, time 36): 4.77
- M. pneumoniae count in time-kill curve ([2]; 2×MIC, time 48): 4.196
- M. pneumoniae count in time-kill curve ([2]; 2×MIC, time 60): 3.827
- M. pneumoniae count in time-kill curve ([2]; 2×MIC, time 72): 3.91
- M. pneumoniae count in time-kill curve ([2]; 4×MIC, time 0): 6.339
- M. pneumoniae count in time-kill curve ([2]; 4×MIC, time 12): 6.61
- M. pneumoniae count in time-kill curve ([2]; 4×MIC, time 24): 6.296
- M. pneumoniae count in time-kill curve ([2]; 4×MIC, time 36): 3.841
- M. pneumoniae count in time-kill curve ([2]; 4×MIC, time 48): 3.684
- M. pneumoniae count in time-kill curve ([2]; 4×MIC, time 60): 3.889
- M. pneumoniae count in time-kill curve ([2]; 4×MIC, time 72): 3.638
- M. pneumoniae count in time-kill curve ([2]; 8×MIC, time 0): 6.339
- M. pneumoniae count in time-kill curve ([2]; 8×MIC, time 12): 6.119
- M. pneumoniae count in time-kill curve ([2]; 8×MIC, time 24): 6.148
- M. pneumoniae count in time-kill curve ([2]; 8×MIC, time 36): 3.952
- M. pneumoniae count in time-kill curve ([2]; 8×MIC, time 48): 3.772
- M. pneumoniae count in time-kill curve ([2]; 8×MIC, time 60): 3.839
- M. pneumoniae count in time-kill curve ([2]; 8×MIC, time 72): 3.776
- M. pneumoniae count in time-kill curve ([2]; 16×MIC, time 0): 6.339
- M. pneumoniae count in time-kill curve ([2]; 16×MIC, time 12): 6.238
- M. pneumoniae count in time-kill curve ([2]; 16×MIC, time 24): 5.56
- M. pneumoniae count in time-kill curve ([2]; 16×MIC, time 36): 4
- M. pneumoniae count in time-kill curve ([2]; 16×MIC, time 48): 3.739
- M. pneumoniae count in time-kill curve ([2]; 16×MIC, time 60): 3.621
- M. pneumoniae count in time-kill curve ([2]; 16×MIC, time 72): 3.801
- M. pneumoniae count in time-kill curve ([2]; 32×MIC, time 0): 6.339
- M. pneumoniae count in time-kill curve ([2]; 32×MIC, time 12): 6.569
- M. pneumoniae count in time-kill curve ([2]; 32×MIC, time 24): 5.262
- M. pneumoniae count in time-kill curve ([2]; 32×MIC, time 36): 3.833
- M. pneumoniae count in time-kill curve ([2]; 32×MIC, time 48): 3.266
- M. pneumoniae count in time-kill curve ([2]; 32×MIC, time 60): 3.249
- M. pneumoniae count in time-kill curve ([2]; 32×MIC, time 72): 3.425
- M. pneumoniae count in time-kill curve ([2]; 64×MIC, time 0): 6.339
- M. pneumoniae count in time-kill curve ([2]; 64×MIC, time 12): 6.625
- M. pneumoniae count in time-kill curve ([2]; 64×MIC, time 24): 4.23
- M. pneumoniae count in time-kill curve ([2]; 64×MIC, time 36): 3.61
- M. pneumoniae count in time-kill curve ([2]; 64×MIC, time 48): 3.065
- M. pneumoniae count in time-kill curve ([2]; 64×MIC, time 60): 3.16
- M. pneumoniae count in time-kill curve ([2]; 64×MIC, time 72): 3.29
- concentration at which bactericidal effect was achieved ([2]; static time-kill, 72 h): 64 × MIC
- LD50 (mice [3]; female mice): 650 mg/kg
- LD50 (mice [3]; male mice): 770 mg/kg
- LD50 (mice [4]): 50 mg/kg
